From patent US11046686B2, “Thiadiazole IRAK4 compounds” (Gilead Sciences, Inc., priority 2018, dated 2021)
Like-named read-outs stand apart in the source and are kept apart here.

How the values were obtained:
TNFα = experiment: IRAK4 Monocyte TNFα Cell Based Assay; parameters: species or system human; conditions: read-out: EC50 MONO TNF HTRF
In short: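 Human monocytes (5,000/well) pretreated with compound 1 h at 37 °C (0.1% DMSO final), then stimulated with 50 pg/ml LPS for 4 h. Secreted TNFα measured by TR-FRET two-antibody detection after overnight incubation at room temperature; % control relative to unstimulated and LPS-stimulated wells.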

IRAK4 enzyme = IRAK4 enzyme (Homo sapiens (Human), UniProt Q9NWZ3); experiment: IRAK4 Biochemical Assay (TR-FRET, STK1 KinEASE)
Chain of IRAK4 enzyme (Q9NWZ3 whole entry): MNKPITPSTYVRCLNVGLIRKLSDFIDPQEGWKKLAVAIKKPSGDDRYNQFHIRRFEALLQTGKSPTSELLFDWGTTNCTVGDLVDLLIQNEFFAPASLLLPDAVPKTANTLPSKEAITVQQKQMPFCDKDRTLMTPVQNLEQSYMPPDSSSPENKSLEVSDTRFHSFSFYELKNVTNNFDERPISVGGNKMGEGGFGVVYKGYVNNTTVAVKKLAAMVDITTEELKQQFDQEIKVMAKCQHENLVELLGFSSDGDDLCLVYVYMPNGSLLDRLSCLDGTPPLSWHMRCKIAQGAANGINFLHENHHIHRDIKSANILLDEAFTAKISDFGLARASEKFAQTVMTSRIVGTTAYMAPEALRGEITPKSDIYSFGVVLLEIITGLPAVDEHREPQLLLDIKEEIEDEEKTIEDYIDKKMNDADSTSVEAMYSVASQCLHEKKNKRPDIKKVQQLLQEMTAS
Procedure: IRAK4 enzyme (Carna Biosciences, Chuo-ku, Kobe, Japan) activity was measured by detecting phosphorylated peptide substrate formation using an antibody against the phosphorylated peptide substrate. This is a time-resolved fluorescence resonance energy transfer (TR-FRET) immunoassay, based on the STK1 KinEASE Assay (Cisbio, Bedford, Mass.). The assay was designed as a simple two-step, endpoint assay (a 5 μl enzyme reaction followed by 5 μl stop and detect Solution) performed in ProxiPlate-384 Plus plates (Perkin Elmer, Waltham, Mass.). […] Compounds diluted in DMSO were spotted into 384 well plates using a Labcyte® Echo 550 Liquid Handling System prior to addition of IRAK4 enzyme and peptide substrate. Reaction solutions were delivered using a Multi-Flo (Bio-Tek Instruments). The enzyme and peptide solution was incubated with compound for 15 minutes at room temp before the reaction was initiated by the addition of ATP. The standard 5 μl reaction mixture contained 500 μM ATP, […] peptide (STK1 Peptide), 0.75 nM of IRAK4 in reaction buffer (50 mM HEPES, pH 7.0, 0.02% NaN3, 0.01% BSA, 0.1 mM Orthovanadate, 5 mM […], 0.025% NP-40, 1 mM DTT). After 120 min of incubation at room temperature, 5 μl of Stop and Detect Solution (1:100 Cryptate labeled anti-phosphorylated peptide antibody solution and 125 nM Tracer in a 50 mM HEPES pH 7.0 detection buffer containing sufficient EDTA) was added. The plate was then further incubated for 60 minutes at room temperature and read on Envision 2103 Multilabeled reader (PerkinElmer) with excitation/emission/FRET emission at 340 nm/615 nm665 nm, respectively. Fluorescence intensities at 615 nm and 665 nm emission wavelengths were expressed as aratio (665 nm/615 nm). Percentage of inhibition was calculated as below: % Inhibition=100×(Ratiosample−Ratio0% Inhibition)/(Ratio100% Inhibition−Ratio0% Inhibition)
The 0% inhibition value comes from control wells lacking inhibitor.

[1] = human monocytes, second part of Table 2, compounds 33-343, unit inferred
[2] = second part of Table 2, compounds 33-343, unit inferred, read-out: IC50 IRAK4-HTBS
[3] = Homo sapiens, Monocyte, human monocytes, second part of Table 2, compounds 33-343, unit inferred

Row | SMILES | EC50 (TNFα; [1]) [nM] | IC50 (IRAK4 enzyme; [2]) [nM] | EC50 (TNFα; [3]) [nM] | IC50 (IRAK4 enzyme) [nM] | EC50 (TNFα; Homo sapiens, Monocyte) [nM]
1 | CC(=O)N[C@@H]1CCN(c2nnc(-c3cnc(-c4ccc5cc(C#N)cnn45)cc3NC3(C)COC3)s2)CC1(F)F (single isomer, unassigned; isomer 1) [147 Isomer 1] | 8.2 | 0.63 | – | – | –
2 | CC(C)Nc1cc(-c2ccc3cc(C#N)cnn23)ncc1-c1nnc([C@H]2C[C@@H]2C(C)(C)O)s1 (single isomer, unassigned; isomer 2) [132 Isomer 2] | 15.2 | 1.3 | – | – | –
3 | CC(C)(O)[C@@H]1C[C@H]1c1nnc(-c2cnc(-c3ccc4cc(C#N)cnn34)cc2NC2COC2)s1 (single isomer, unassigned; isomer 2) [136 Isomer 2] | 4 | 0.53 | – | – | –
4 | CC(=O)N[C@H]1CCN(c2nnc(-c3cnc(-c4ccc5cc(C#N)cnn45)cc3NC3(C)COC3)s2)CC1(F)F (single isomer, unassigned; isomer 2) [147 Isomer 2] | 24.2 | 0.62 | – | – | –
5 | CC(C)(O)[C@@H]1C[C@@H]1c1nnc(-c2cnc(-c3ccc4cc(C#N)cnn34)cc2NC2COC2)s1 (single isomer, unassigned; isomer 3) [136 Isomer 3] | 39 | 0.64 | – | – | –
6 | CC(C)(O)[C@H]1C[C@H]1c1nnc(-c2cnc(-c3ccc4cc(C#N)cnn34)cc2NC2COC2)s1 (single isomer, unassigned; isomer 4) [136 Isomer 4] | 30.5 | 0.74 | – | – | –
7 | CC(=O)NC1CC2(C1)CN(c1nnc(-c3cnc(-c4ccc5cc(C#N)cnn45)cc3NC(C)C)s1)C2 [Compound 231, N-(2-(5-(6-(3-cyanopyrrolo[1,2-b]pyridazin-7-yl)-4-(isopropylamino)pyridin-3-yl)-1,3,4-thiadiazol-2-yl)-2-azaspiro[3.3]heptan-6-yl)acetamide] | – | – | 22.2 | 1.17 | –
8 | CC(C)Nc1cc(-c2ccc3cc(C#N)cnn23)ncc1-c1nnc(N2CC3CC(C2)O3)s1 [Compound 233, 7-(5-(5-(6-oxa-3-azabicyclo[3.1.1]heptan-3-yl)-1,3,4-thiadiazol-2-yl)-4-(isopropylamino)pyridin-2-yl)pyrrolo[1,2-b]pyridazine-3-carbonitrile] | – | – | – | 0.35 | 6.4
9 | CC(C)Nc1cc(-c2ccc3cc(C#N)cnn23)ncc1-c1nnc(N2C3COCC2C3)s1 [Compound 234, 7-(5-(5-(3-oxa-6-azabicyclo[3.1.1]heptan-6-yl)-1,3,4-thiadiazol-2-yl)-4-(isopropylamino)pyridin-2-yl)pyrrolo[1,2-b]pyridazine-3-carbonitrile] | – | – | 178 | 1.28 | –
10 | CC(C)Nc1cc(-c2ccc3cc(C#N)cnn23)ncc1-c1nnc(N2CC3CCC(C2)O3)s1 [Compound 235, 7-(5-(5-(8-oxa-3-azabicyclo[3.2.1]octan-3-yl)-1,3,4-thiadiazol-2-yl)-4-(isopropylamino)pyridin-2-yl)pyrrolo[1,2-b]pyridazine-3-carbonitrile] | – | – | 4.4 | 0.48 | –
11 | CC(C)Nc1cc(-c2ccc3cc(C#N)cnn23)ncc1-c1nnc(N2C3CCC2COC3)s1 [Compound 236, 7-(5-(5-(3-oxa-8-azabicyclo[3.2.1]octan-8-yl)-1,3,4-thiadiazol-2-yl)-4-(isopropylamino)pyridin-2-yl)pyrrolo[1,2-b]pyridazine-3-carbonitrile] | – | – | – | 0.83 | 25.8
12 | CC(C)Nc1cc(-c2ccc3cc(C#N)cnn23)ncc1-c1nnc(N2C[C@H]3C[C@@H]2CO3)s1 [Compound 237, 7-(5-(5-((1R,4R)-2-oxa-5-azabicyclo[2.2.1]heptan-5-yl)-1,3,4-thiadiazol-2-yl)-4-(isopropylamino)pyridin-2-yl)pyrrolo[1,2-b]pyridazine-3-carbonitrile] | – | – | 8.4 | 0.14 | –
13 | CC(C)Nc1cc(-c2ccc3cc(C#N)cnn23)ncc1-c1nnc(N2C[C@@H]3C[C@H]2CO3)s1 [Compound 238, 7-(5-(5-((1S,4S)-2-oxa-5-azabicyclo[2.2.1]heptan-5-yl)-1,3,4-thiadiazol-2-yl)-4-(isopropylamino)pyridin-2-yl)pyrrolo[1,2-b]pyridazine-3-carbonitrile] | – | – | 12.6 | 0.46 | –
14 | CC(=O)N[C@H]1CC[C@H](c2nnc(-c3cnc(-c4ccc5cc(C#N)cnn45)cc3N[C@H]3CC[C@@H](O)CC3)s2)CC1 [Compound 244, N-((1R,4r)-4-(5-(6-(3-cyanopyrrolo[1,2-b]pyridazin-7-yl)-4-(((1s,4S)-4-hydroxycyclohexyl)amino)pyridin-3-yl)-1,3,4-thiadiazol-2-yl)cyclohexyl)acetamide] | 9.1 | 0.93 | – | – | –
15 | CC(=O)NC12CC(c3nnc(-c4cnc(-c5ccc6cc(C#N)cnn56)cc4NC(C)C)s3)(C1)C2 [Compound 246, N-(3-(5-(6-(3-cyanopyrrolo[1,2-b]pyridazin-7-yl)-4-(isopropylamino)pyridin-3-yl)-1,3,4-thiadiazol-2-yl)bicyclo[1.1.1]pentan-1-yl)acetamide] | – | – | 43.3 | 1.37 | –
16 | CC(=O)N[C@H]1CC[C@H](c2nnc(-c3cnc(-c4ccc5cc(C#N)cnn45)cc3NC(C)C)s2)C1 [Compound 247, N-((1S,3S)-3-(5-(6-(3-cyanopyrrolo[1,2-b]pyridazin-7-yl)-4-(isopropylamino)pyridin-3-yl)-1,3,4-thiadiazol-2-yl)cyclopentyl)acetamide] | – | – | 25.1 | 0.8 | –
17 | CC(=O)N[C@@H]1CC[C@H](c2nnc(-c3cnc(-c4ccc5cc(C#N)cnn45)cc3NC(C)C)s2)C1 [Compound 248, N-((1R,3S)-3-(5-(6-(3-cyanopyrrolo[1,2-b]pyridazin-7-yl)-4-(isopropylamino)pyridin-3-yl)-1,3,4-thiadiazol-2-yl)cyclopentyl)acetamide] | – | – | 16.3 | 0.93 | –
18 | CC(=O)NC1CCN(c2nnc(-c3cnc(-c4ccc5cc(C#N)cnn45)cc3NC(C)C)s2)[C@@H](C)C1 (stereo partly drawn) [Compound 249, N-((2S)-1-(5-(6-(3-cyanopyrrolo[1,2-b]pyridazin-7-yl)-4-(isopropylamino)pyridin-3-yl)-1,3,4-thiadiazol-2-yl)-2-methylpiperidin-4-yl)acetamide] | – | – | 8.9 | 0.91 | –
19 | CC(=O)N[C@@H]1CCN(c2nnc(-c3cnc(-c4ccc5cc(C#N)cnn45)cc3NC(C)C)s2)C[C@@H]1F [Compound 250, N-((3S,4R)-1-(5-(6-(3-cyanopyrrolo[1,2-b]pyridazin-7-yl)-4-(isopropylamino)pyridin-3-yl)-1,3,4-thiadiazol-2-yl)-3-fluoropiperidin-4-yl)acetamide] | – | – | 8.3 | 1.17 | –
20 | CC(=O)NC1CCN(c2nnc(-c3cnc(-c4ccc5cc(C#N)cnn45)cc3NC(C)C)s2)CC1(F)F (stereo not drawn) [Compound 251, N-(1-(5-(6-(3-cyanopyrrolo[1,2-b]pyridazin-7-yl)-4-(isopropylamino)pyridin-3-yl)-1,3,4-thiadiazol-2-yl)-3,3-difluoropiperidin-4-yl)acetamide] | – | – | 4.4 | 0.48 | –
21 | CC(C)Nc1cc(-c2ccc3cc(C#N)cnn23)ncc1-c1nnc(N2CC3(COC3)C2)s1 [Compound 252, 7-(5-(5-(2-oxa-6-azaspiro[3.3]heptan-6-yl)-1,3,4-thiadiazol-2-yl)-4-(isopropylamino)pyridin-2-yl)pyrrolo[1,2-b]pyridazine-3-carbonitrile] | – | – | 7 | 0.29 | –
